# From ChEMBL document CHEMBL4014287, “Jesridonin in combination with paclitaxel demonstrates synergistic anti-tumor activity in human esophageal carcinoma cells” (Bioorg Med Chem Lett, 2017)
# Active and inactive are the calls of the source. The calls are words filed in the database; no cut-off is given here.
# Tests used:
# [1] = test system: Mus musculus; test: Toxicity in nude mouse xenografted with human EC109 cells assessed as skin ulceration at 5 mg/kg measured after 21 days; type: organism-based; settings: in vivo, 504 h
# [2] = test system: ECa-109 cell line; test: Antitumor activity against human EC109 cells xenografted in nude mouse assessed as induction of necrosis at 5 mg/kg measured after 21 days by H and E staining based assay; type: functional, organism-based
# [3] = test system: ECa-109 cell line; test: Induction of apoptosis in human EC109 cells assessed as early apoptotic cells at 5 nM after 24 hrs by Annexin V-FITC/propidium iodide staining based flow cytometry (reference value: 1.3%); type: functional
# [4] = test system: ECa-109 cell line; test: Induction of apoptosis in human EC109 cells assessed as nuclear shrinkage at 5 nM after 24 hrs by Hochest 33258 staining based fluorescent microscopic analysis; type: functional, cell-based
# [5] = test system: ECa-109 cell line; test: Induction of apoptosis in human EC109 cells assessed as viable cells at 5 nM after 24 hrs by Annexin V-FITC/propidium iodide staining based flow cytometry (reference value: 96.1%); type: functional; settings: ECa-109, 24 h, read-out: Activity
# [6] = test system: ECa-109 cell line; test: Induction of apoptosis in human EC109 cells assessed as nuclear condensation at 5 nM after 24 hrs by Hochest 33258 staining based fluorescent microscopic analysis; type: functional, cell-based
# [7] = test system: Mus musculus; test: Toxicity in nude mouse xenografted with human EC109 cells assessed as pathological changes at 5 mg/kg measured after 21 days; type: organism-based; settings: in vivo, 504 h
# [8] = test system: Mus musculus; test: Toxicity in nude mouse xenografted with human EC109 cells assessed as body weight loss at 5 mg/kg measured after 21 days; type: organism-based; settings: in vivo, 504 h
# [9] = test system: ECa-109 cell line; test: Induction of apoptosis in human EC109 cells assessed as necrotic cells at 5 nM after 24 hrs by Annexin V-FITC/propidium iodide staining based flow cytometry (reference value: 1.6 %); type: functional
# [10] = test system: ECa-109 cell line; test: Induction of apoptosis in human EC109 cells assessed as late apoptotic cells at 5 nM after 24 hrs by Annexin V-FITC/propidium iodide staining based flow cytometry (reference value: 1%); type: functional
# [11] = test system: ECa-109 cell line; test: Cytotoxicity against human EC109 cells assessed as reduction in cell viability after 24 hrs by MTT assay; type: functional, cell-based
compound,measurement,setting,value
CC(=O)O[C@H]1C(=O)[C@@]2(C)[C@H]([C@H](OC(=O)c3ccccc3)[C@]3(O)C[C@H](OC(=O)[C@H](O)[C@@H](NC(=O)c4ccccc4)c4ccccc4)C(C)=C1C3(C)C)[C@]1(OC(C)=O)CO[C@@H]1C[C@@H]2O [PACLITAXEL],Activity,[1],Non-Toxic
same,Activity,[2],Active
same,Activity,[3],4.5%
same,Activity,[4],Active
same,viability at 0.005 µM,[5],94.1%
same,Activity,[6],Active
same,Activity,[7],Non-Toxic
same,Activity,[8],Non-Toxic
same,Activity,[9],0.5%
same,Activity,[10],0.9%
same,Activity,[11],Dose-dependent effect
